Values of other authors as cited in patent US20260116929A1, “ANTI-GRAM-NEGATIVE BACTERIAL COMPOUND” (Murata Manufacturing Co., Ltd., priority 2018, published 2026).

Experiments:
Conditions in all cases: background statement
gram-positive bacteria = system: gram-positive bacteria
gram-negative bacteria = system: gram-negative bacteria
Vibrio parahaemolyticus = system: Vibrio parahaemolyticus

Molecule | antimicrobial activity against gram-positive bacteria (gram-positive bacteria) | antimicrobial activity against gram-negative bacteria (gram-negative bacteria) | antimicrobial activity against Vibrio parahaemolyticus (Vibrio parahaemolyticus)
C=C1NC(=O)CC[C@@H](C(=O)O)NC(=O)[C@H](NC(=O)[C@H](CCCCN)NC(=O)[C@@H](N)Cc2c[nH]c3ccccc23)CSC[C@@H](C(=O)N[C@@H]2C(=O)N3CCC[C@H]3C(=O)NCC(=O)N[C@H](C(=O)N[C@H](C(=O)N[C@@H]3C(=O)NCC(=O)N[C@@H](C)C(=O)N[C@@H](CC(C)C)C(=O)N[C@@H](CCC(N)=O)C(=O)N/C(=C/C)C(=O)N[C@H](C(=O)N[C@@H](Cc4ccccc4)C(=O)N[C@@H](CC(C)C)C(=O)N[C@@H](CCC(N)=O)C(=O)N[C@@H]4C(=O)N[C@@H](CC(C)C)C(=O)N[C@H]5C(=O)N[C@@H](CSC4C)C(=O)NC(=O)[C@H](CC(N)=O)N[C@H](C(=O)N[C@@H](CCCCN)C(=O)N[C@H](C(=O)NC(=C)C(=O)N[C@@H](CCCCN)C(=O)O)[C@@H](C)CC)CSC5C)CSC3C)C(C)C)CSC2C)N[C@@H](CC(C)C)C(=O)NC1=O (stereo partly shown) [subtilin] | have antimicrobial activities | not | –
Nisin | has an antimicrobial activity | not | no antimicrobial activity
entianin | have antimicrobial activities | not | –
